Article PMC3527451, “A Pilot Randomized, Placebo Controlled, Double Blind Phase I Trial of the Novel SIRT1 Activator SRT2104 in Elderly Volunteers” (PLoS ONE, 2012)
“Also recorded” adds a separate entry of the source.

Experiments:
[1] = test system: elderly male and female volunteers; assay: Serum lipid profile at baseline and after 28 days treatment; type: in vivo, human
Procedure: At every visit (including at screening and follow-up), blood and urine samples were collected for clinical laboratory assessments (general blood biochemistry, full blood count, coagulation parameters and urinalysis). On the same days, physical examination, vital signs (resting pulse rate, respiration rate, temperature, and blood pressure readings), pre- and post-dose 12-lead ECG and a review of adverse events (AE) and any medications received were also performed. Safety evaluations were based on the incidence, severity and type of AEs and clinically significant changes from baseline in physical examination findings, vital signs or clinical laboratory results.

[2] = test system: elderly male and female volunteers; assay: MRI of subcutaneous and visceral adipose tissue; type: in vivo, human; conditions: active treatment relative to placebo
Procedure: Magnetic Resonance Imaging (MRI) was also carried out on a clinical Siemens 3T Tim Trio (Siemens Healthcare, Erlangen, Germany). The torso was imaged using the 6-channel spine array and two 4-channel body array coils. The data were acquired using a 3D spoiled gradient echo sequence with partial Fourier acquisitions (VIBE). The imaging volume consisted of contiguous 3D slabs (voxel size of 1.4×1.4×5 mm3) acquired in a single 15 s end-expiration breath-hold (repetition time = 7 ms; echo times TEs = 2.45, 3.67 ms; flip angle = 10°; 450 mm field-of-view; GRAPPA factor 2). […] Fat-only images in the abdomen were manually segmented into intra-abdominal adipose tissue (IAT) and abdominal subcutaneous adipose tissue (SAT). The abdominal area was defined by using anatomical landmarks (top of the femoral heads to the bottom of the right lung). All images were anonymized and blinded to time point, but not to subject in order to facilitate matching anatomical landmarks, and sent to a third party (Vardis Group Inc, London), who derived the adipose tissue volumes using Slice-O-Matic (Tomovision, Montreal, Canada) software. Analysis of compartmental fat distribution was performed for subcutaneous adipose tissue (SAT), visceral adipose tissue (VAT), and the ratio of SAT:VAT, using an ANOVA model with treatment group as a factor.

[3] = test system: elderly male and female volunteers; assay: Maximal aerobic capacity test (incremental cycle ergometer); type: in vivo, human
Procedure: A stepwise incremental exercise test was performed on a cycle ergometer (Monarch 874E, Monark Exercise AB, Vansbro, Sweden). All participants were familiarized to the test procedure on a separate occasion prior to testing. Participants were seated in a standardized position. The test started with unloaded cycling, subjects were asked to maintain a cadence of 50 revolutions per minute (rpm), if the subject could not achieve 50 rpm they were encouraged to cycle as fast as the could (but not less than 40 rpm). Every two minutes the external load on the cycle ergometer was increased by 0.5 kg, this equated to a 25-Watt increase in workload at 50 rpm. Cardiac monitoring of heart rate, respiratory rate/minute ventilation and pulse oximeter for oxygen saturation were continuously recorded during the test.
Analysis of Maximal Aerobic Capacity parameters was performed using an ANOVA model with treatment group as a factor. Workload was progressed in 2-minute staged increments from an initial 3 minutes unloaded cycling, to exhaust subjects over a 6- to 10-min period. The test was terminated when the participant reached volitional exhaustion or their cadence dropped by 10 rpm. At the end of each increment, work-rate watts, rating of perceived exertion (Borg RPE scale), heart rate (Polar Vantage chest heart rate monitor, Polar Electro, Finland) and 3-lead ECG were recorded.

[4] = test system: bacterial reverse mutation assay (AMES test), mouse lymphoma and mouse micronucleus; set-up: method as in ref 17, 18; SRT2104 Investigator's Brochure; conditions: preclinical; SRT2104 Investigator's Brochure; cited from earlier work
rats and dogs = test system: rats and dogs; set-up: method as in ref 17, 18; SRT2104 Investigator's Brochure; conditions: acute safety pharmacology, doses up to 2.0 g/kg; SRT2104 Investigator's Brochure; cited from earlier work
CYP1A [5] = conditions: human liver microsomes; cited from earlier work
CYP2D6 = conditions: human liver microsomes; cited from earlier work
CYP3A4 [6] = conditions: human liver microsomes; cited from earlier work
CYP1A [7] = test system: CYP1A; set-up: method as in ref 17, 18 (a number printed in a supplementary file, which may have a reference list of its own: not looked up in the article's list); conditions: cultured hepatocytes, at the concentrations tested; cited from earlier work
CYP3A4 [8] = test system: CYP3A4; set-up: method as in ref 17, 18 (a number printed in a supplementary file, which may have a reference list of its own: not looked up in the article's list); conditions: cultured hepatocytes, at the concentrations tested; cited from earlier work
healthy male volunteers = conditions: young healthy volunteers, up to 7 days dosing of 0.03–3.0 g/day; cited from earlier work
SIRT1 = test system: SIRT1; set-up: method as in JC Milne et al, 2007; conditions: lowering of the Km for acetylated protein substrate; ref JC Milne et al, 2007; cited from earlier work
dog = test system: dog; set-up: method as in SRT2104 Investigator's Brochure; conditions: ref SRT2104 Investigator's Brochure, cited from earlier work
healthy male subjects = test system: healthy male subjects; set-up: method as in SRT-2104-002; conditions: 250 mg oral suspension and intravenous microdose of 100µg 14C-SRT2104, eight healthy male subjects; ref SRT-2104-002; cited from earlier work
[9] = cited from earlier work
SIRT3 = conditions: SIRT1 activation over SIRT3; ref SRT2104 Investigator's Brochure; cited from earlier work

Cc1nc(-c2cccnc2)sc1C(=O)Nc1ccccc1-c1cn2c(CN3CCOCC3)csc2n1 [SRT2104]
serum cholesterol levels, change relative to baseline as compared to placebo ([1]; 0.5 g/day, day 28, p = 0.0071): statistically significant decrease | increase in mean HDL:LDL ratio as compared to placebo ([1]; 2.0 g/day, day 28, p = 0.0141): statistically significant | serum cholesterol levels, change relative to baseline as compared to placebo ([1]; 2.0 g/day, day 28, p = 0.0181): statistically significant decrease | total cholesterol, LDL levels and HDL:LDL ratio after drug washout ([1]; 7 days of drug washout): reverted to baseline values | high-density lipoprotein, HDL ([1]; day 28): not changes | low-density lipoprotein (LDL) cholesterol ([1]; day 28): decreases | mean HDL:LDL ratios ([1]; day 28, 0.5 and 2.0 g/day): dose-dependent increase | mean serum triglyceride concentration ([1]; day 28 relative to baseline, as compared to placebo, not dose-dependent, only a trend for 2.0 g/day): decrease | Serum cholesterol, LDL levels and triglycerides ([1]; with treatment, 0.5 or 2.0 g for 28 days): decreased | subcutaneous (SAT) and visceral (VAT) adipose tissue volumes and VAT:SAT ratio [2]: No consistent changes from baseline | RPE, range of change from baseline ([3]; 0.5g/day, day 27): -3-6 | TTC, range of change from baseline ([3]; 0.5g/day, day 27): -106 to 67 s | TTC, mean change from baseline (SD) ([3]; 0.5g/day, day 27, p 0.004): -31 (50) sec | RPE, mean change from baseline (SD) ([3]; 0.5g/day, day 27, p 0.962): 0 (3) | decrease in exercise capacity (time to cessation for the staged bicycle assessment) ([3]; 0.5 g/day, day 27, p = 0.004): 4% | RPE, range of change from baseline ([3]; 2.0g/day, day 27): -3-1 | TTC, range of change from baseline ([3]; 2.0g/day, day 27): -29 to 45 s | change in exercise capacity ([3]; 2.0g/day, day 27): no evidence for any changes | TTC, mean change from baseline (SD) ([3]; 2.0g/day, day 27, p 0.292): 9 (27) sec | RPE, mean change from baseline (SD) ([3]; 2.0g/day, day 27, p 0.638): -1 (2) | genotoxicity [4]: not genotoxic | central nervous system, cardiovascular system and pulmonary effects (rats and dogs): no central nervous system (CNS), cardiovascular system (CVS) or pulmonary effects; also recorded: not associated with adverse central nervous system, cardiovascular system, or pulmonary effects | inhibition of CYP1A (CYP1A [5]): not an inhibitor; also recorded: does not inhibit | inhibition of CYP2D6 (CYP2D6): not an inhibitor; also recorded: does not inhibit | inhibition of CYP3A4 (CYP3A4 [6]): not an inhibitor; also recorded: does not inhibit | induction of CYP1A (CYP1A [7]): not a significant inducer | induction of CYP3A4 (CYP3A4 [8]): not a significant inducer | tolerability (healthy male volunteers): well tolerated and safe | increase in SIRT1 activity (SIRT1): approximately two-fold increase in activity | tolerability (dog; dog, up to 2.0 g/kg for 28 days): well tolerated at all doses | increase in indirect bilirubin (dog; female dogs, 2.0 g/kg/day group): < 2 X | NOAEL (dog; male and female dogs, 28 days): 1000 mg/kg | tolerability (healthy male subjects): well-tolerated | effect of food on overall exposure ([9]; 0.5 and 2.0 g doses, standardized solid meal vs fasted state): increase exposure levels; also recorded: increase in overall exposure | effect of food on inter-subject variability in exposure ([9]; fed state vs fasted state): substantial reduction in inter-subject variability | fold selectivity as compared to SIRT3 (SIRT3): > 100
